The values below come from ChEMBL document CHEMBL1201862, “PubChem BioAssay data set” (2004).

The structures appear in SMILES notation.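 1) Cells in 96-well plates. 2) Compound, 48 h, 5 concentrations. 3) Linear interpolation between surrounding doses. 4) Unreached endpoint = highest concentration. GI50 = concentration required for 50% inhibition of growth.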 Active and inactive are the calls of the source. No stated cut-off is given here; in the data, active = GI50 up to about 1.1 µM and inactive = higher.

Common to all, as to test: NCI-60 cell line screen, 48 h
In assay [1] the test system is MCF7.
Assay [2] concerns MDA-MB-231.
Assay [3] relates to HCT-15.
In assay [4] the test system is SF-539.
Assay [5] has as its system K562.
The subject of assay [6] is MDA-MB-435.
Assay [7] relates to EKVX.
Assay [8] relates to HCT-116.
Assay [9] deals with UACC-62.
In assay [10] the test system is NCI-H226.
In assay [11] the test system is SNB-75.
The subject of assay [12] is OVCAR-8.
Assay [13] relates to T47D.
Assay [14] concerns MOLT-4.
The test system of assay [15] is UACC-257.
The subject of assay [16] is IGROV-1.
The subject of assay [17] is HCC 2998.
For assay [18], the system named is OVCAR-4.

`O=C(Cn1c(=O)ccn(C2OC(CO)C(O)C2F)c1=O)c1ccc(F)cc1` (centres undefined): the GI50 in assay [1] is > 100 µM (inactive); in assay [2] it was > 100 µM (inactive); in [3], greater than 100 µM; in assay [4] it was > 100 µM (inactive); in [5], > 100 µM (inactive); in [6] it was > 100 µM (inactive). The GI50 is > 100 µM (inactive) in assay [7]; > 100 µM (inactive) in assay [8]; > 100 µM (inactive) in [9]; > 100 µM (inactive) in [10]; 82.2 µM (inactive) in assay [11]; > 100 µM (inactive) in assay [12]. In addition, the GI50 in assay [13], in assay [14], in assay [15] and in [16] was > 100 µM (inactive) throughout.

On to `CC(C)N1[C@@H]2CCCC[C@H]2N(C(C)C)[PH]1=O`, for which the GI50 was > 100 µM (inactive) in assay [1]; greater than 100 µM in assay [3]; > 100 µM (inactive) in [4]; > 100 µM (inactive) in assay [5]; > 100 µM (inactive) in assay [6]; > 100 µM (inactive) in assay [7]. Moreover, the GI50 in [8], in assay [9], in [10], in assay [17], in assay [11] and in assay [12] was > 100 µM (inactive) each time. The GI50 in [13], in [14] and in assay [15] was > 100 µM (inactive) in each case.

Regarding `NNC(=O)CS(=O)(=O)Nc1ncccn1`, the GI50 in assay [1] is > 100 µM (inactive); in assay [2] it was > 100 µM (inactive); in [3] it was greater than 100 µM; in [4] it was > 100 µM (inactive); in [5] it was > 100 µM (inactive); in assay [6], > 100 µM (inactive). Besides, the GI50 in assay [7], in assay [18], in assay [8], in assay [9], in [10] and in assay [11] was > 100 µM (inactive) each time. Besides, the GI50 in assay [12], in [13], in [15] and in assay [16] was > 100 µM (inactive) in each case.

On to `C[C@]12CC[C@H]3[C@@H](CC=C4C[C@@H](N5CCCC5)CC[C@@]43C)[C@@H]1C/C(=C\c1ccc([N+](=O)[O-])cc1)[C@@H]2O`, for which the GI50 in assay [1] is 20.7 µM (inactive); in [2] it was 16.2 µM (inactive); in assay [3], 13.8 µM; in [4], 15.4 µM (inactive); in assay [6], 16.9 µM (inactive); in assay [18] it was 12.1 µM (inactive). Moreover, the GI50 in assay [8] was 16.3 µM (inactive); in assay [9] it was 15.8 µM (inactive); in [10], 18.5 µM (inactive); in assay [13], 20.7 µM (inactive); in [14], 0.942 µM (active); in assay [15] it was 16.4 µM (inactive). Moreover, in assay [16], the GI50 is 14.8 µM (inactive).

As for `COc1ccc(C(=O)C(CC2C(=O)CC(C)(C)C(C(=O)C(=O)Nc3c(C)cccc3C)C2=O)c2ccc(OC)cc2)cc1` (centres undefined), the GI50 in [1] was > 100 µM (inactive); in assay [2] it was > 100 µM (inactive); in [3] it was greater than 100 µM; in assay [4] it was > 100 µM (inactive); in [6], > 100 µM (inactive); in assay [7] it was > 100 µM (inactive). Moreover, the GI50 in [18], in assay [8], in [9], in assay [10], in [17] and in [11] was > 100 µM (inactive) each time. For the same molecule, the GI50 in assay [12], in [14], in assay [15] and in [16] was > 100 µM (inactive) each time.

Consider `CN(C)CCn1nc(N)c2nc3cc(C(F)(F)F)ccc3nc21`, for which the GI50 in [1] was > 100 µM (inactive); in [2], > 100 µM (inactive); in [3], 67.3 µM; in assay [5], > 100 µM (inactive); in assay [6], > 100 µM (inactive); in assay [7], > 100 µM (inactive). For the same molecule, the GI50 was > 100 µM (inactive) in assay [18]; > 100 µM (inactive) in [8]; > 100 µM (inactive) in assay [9]; 2.49 µM (inactive) in assay [10]; 75.9 µM (inactive) in [17]; 15.5 µM (inactive) in assay [11]. The GI50 in [12] is 88.3 µM (inactive); in assay [14] it was 33.2 µM (inactive); in assay [15], > 100 µM (inactive); in [16], 41.5 µM (inactive).

As for `O=C1NC(=O)C(c2c[nH]c3cc(Br)ccc23)=C1c1cnc[nH]1`, the GI50 in assay [1] was 21.7 µM (inactive); in [2], 27.9 µM (inactive); in assay [3] it was 54.5 µM; in [4], 21.9 µM (inactive); in assay [5], 25.6 µM (inactive); in [6], 25.1 µM (inactive). Also, the GI50 is 23.4 µM (inactive) in [7]; 32.1 µM (inactive) in [18]; 25.8 µM (inactive) in [8]; 1.47 µM (inactive) in assay [10]; > 100 µM (inactive) in assay [11]; 65.2 µM (inactive) in [12]. For the same molecule, the GI50 in assay [13] is 48.8 µM (inactive); in assay [14], 23.9 µM (inactive); in assay [15], 16 µM (inactive); in [16], 28.4 µM (inactive).

Turning to `Oc1c(CN2CCN(c3ccccc3)CC2)cc(Br)c2cccnc12`, the GI50 is 0.966 µM (active) in assay [1]; 2.33 µM (inactive) in [2]; 0.135 µM in assay [3]; 2.07 µM (inactive) in assay [4]; 1.46 µM (inactive) in assay [6]; 2.62 µM (inactive) in [7]. Also, the GI50 is 1.7 µM (inactive) in [18]; 0.448 µM (active) in assay [8]; 1.01 µM (active) in assay [9]; 3.78 µM (inactive) in [11]; 0.721 µM (active) in [12]; 1.32 µM (inactive) in assay [13]. The GI50 in assay [14] is 0.349 µM (active); in assay [15] it was 2.96 µM (inactive); in assay [16], 0.834 µM (active).

In the case of `COC(=O)/C=C1/N=C(N(C)/N=C/c2ccccc2)NC1=O`, the GI50 in assay [1] was > 100 µM (inactive); in assay [2], > 100 µM (inactive); in assay [3] it was greater than 100 µM; in [4], > 100 µM (inactive); in [5], > 100 µM (inactive); in assay [7] it was > 100 µM (inactive). Further, the GI50 in [18], in assay [8], in [9], in assay [17], in assay [11] and in assay [12] was > 100 µM (inactive) each time. Further, the GI50 in assay [13], in assay [14], in assay [15] and in [16] was > 100 µM (inactive) each time.
